Measured values taken from patent US8026218B2, “Bifunctional analgesic compounds for opioid receptor agonists and neurokinin-1 receptor antagonists” (The University of Arizona, priority 2006, dated 2011).
“And” between values parts separate entries of the source, which are not always exact repeats. Equal entries are not always repeated. “Also recorded” adds a separate entry of the source. Where two headings read alike, the source gives them in different places.

Legend:
[1] = biological target: T1, human NK1 receptor (hNK1) (Homo sapiens, UniProt P25103); settings: Cascieri 1994; cited from earlier work
T1 construct: expressed in transfected cells
T1 sequence (P25103 whole entry): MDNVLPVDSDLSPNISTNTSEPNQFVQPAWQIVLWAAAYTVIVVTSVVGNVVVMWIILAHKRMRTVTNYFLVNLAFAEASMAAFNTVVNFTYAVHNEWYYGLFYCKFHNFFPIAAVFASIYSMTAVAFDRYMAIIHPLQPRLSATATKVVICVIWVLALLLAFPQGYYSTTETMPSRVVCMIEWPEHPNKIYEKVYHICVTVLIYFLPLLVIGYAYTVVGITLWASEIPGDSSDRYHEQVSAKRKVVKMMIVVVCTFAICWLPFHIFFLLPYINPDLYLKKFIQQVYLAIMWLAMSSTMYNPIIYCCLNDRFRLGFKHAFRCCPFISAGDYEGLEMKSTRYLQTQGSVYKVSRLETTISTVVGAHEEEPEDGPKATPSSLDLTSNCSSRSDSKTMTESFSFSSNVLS

[2] = biological target: T2, Substance P receptors (guinea pig NK1) (Cavia porcellus, UniProt P30547); assay: Guinea pig isolated ileum (GPI) assay with substance P stimulation in presence of 1 μM naloxone
T2 construct: from tissue; host or cells: guinea pig (Hartley) ileum LMMP, 1 μM naloxone present
T2 sequence (P30547 whole entry): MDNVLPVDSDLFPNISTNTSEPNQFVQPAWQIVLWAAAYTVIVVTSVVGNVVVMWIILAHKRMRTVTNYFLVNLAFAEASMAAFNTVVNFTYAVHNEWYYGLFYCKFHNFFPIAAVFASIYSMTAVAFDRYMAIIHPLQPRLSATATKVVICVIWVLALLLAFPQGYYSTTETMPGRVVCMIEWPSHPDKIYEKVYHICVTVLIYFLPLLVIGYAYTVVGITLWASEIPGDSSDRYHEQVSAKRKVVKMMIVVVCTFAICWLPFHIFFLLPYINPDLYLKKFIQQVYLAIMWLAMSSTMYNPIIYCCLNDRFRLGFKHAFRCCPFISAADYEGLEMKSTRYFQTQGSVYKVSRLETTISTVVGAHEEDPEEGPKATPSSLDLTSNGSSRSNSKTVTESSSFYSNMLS

male Sprague Dawley rats [3] = assay: Anti-nociception, infrared radiant heat paw withdrawal latency; assay type: in vivo, rat; settings: i.th.
Protocol: (§1) To estimate the analgesic potency of the chimeric compounds, anti-nociceptive, anti-hyperalgecia and anti-allodynic efficacies is tested via intrathecal (i.th.) or systemic (s.c.) administration of the compounds in L5/L6 spinal nerve ligated (SNL) male Sprague Dawley rats. Anti-nociception and anti-hyperalgecia were determined by using the infrared thermal testing, wherein paw withdrawal latencies were measured in response to a mobile radiant heat (FIG. 7-14). Anti-allodynic effect was measured in von Frey filamental testing (FIG. 7-14). Both chronic and acute animal models were tested ([…]).
(§2) In vivo Biological Activity. […] Food and water was available ad libitum. […] I.th. […] Each training session lasted three minutes. […] Discussion.

[4] = biological target: T3, rat μ opioid receptors (rMOR) (Rattus norvegicus, UniProt P33535); assay: biochemical; assay type: biochemical
T3 construct: expressed in transfected cells; host or cells: HN9.10 neuroblastoma cell line, pCDNA3, neomycin-selected clones
T3 sequence (P33535 whole entry): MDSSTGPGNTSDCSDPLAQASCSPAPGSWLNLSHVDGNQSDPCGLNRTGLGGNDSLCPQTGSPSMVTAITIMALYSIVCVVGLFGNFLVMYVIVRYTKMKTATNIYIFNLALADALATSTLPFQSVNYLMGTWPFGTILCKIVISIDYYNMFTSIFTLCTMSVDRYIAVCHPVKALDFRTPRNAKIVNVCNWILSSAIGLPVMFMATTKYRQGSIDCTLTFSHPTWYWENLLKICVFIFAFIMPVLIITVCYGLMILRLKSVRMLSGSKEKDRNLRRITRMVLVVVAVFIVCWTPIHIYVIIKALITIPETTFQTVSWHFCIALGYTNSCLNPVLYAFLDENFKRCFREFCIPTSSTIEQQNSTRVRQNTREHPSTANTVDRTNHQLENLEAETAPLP

[5] = biological target: T1, human NK1 receptor (hNK1); assay: Radioligand competition binding, [3H]-Substance P, hNK1; settings: Ki rNK1 vs Ki hNK1
[6] = system: L5/L6 spinal nerve ligated (SNL) male Sprague Dawley rats; assay: Anti-hyperalgesia, infrared radiant heat in L5/L6 SNL rats; assay type: in vivo, rat
Protocol: as §1, §2

[7] = Brain distribution, in situ perfusion model; assay type: in vivo; settings: FIG. 20
[8] = system: L5/L6 spinal nerve ligated (SNL) male Sprague Dawley rats; assay: Anti-allodynia, von Frey filament testing in L5/L6 SNL rats; assay type: in vivo, rat; settings: for anti-allodynic effect against mechanical stimulation: SNL rats, words
Protocol: as §1, §2

[9] = biological target: T4, human δ opioid receptors (hDOR) (Homo sapiens, UniProt P41143); assay: Radioligand competition binding, [3H]DPDPE, hDOR membranes; settings: membranes from transfected HN9.10 cells
T4 construct: expressed in transfected cells; host or cells: HN9.10 neuroblastoma cell line, pCDNA3, neomycin-selected clones
T4 sequence (P41143 whole entry): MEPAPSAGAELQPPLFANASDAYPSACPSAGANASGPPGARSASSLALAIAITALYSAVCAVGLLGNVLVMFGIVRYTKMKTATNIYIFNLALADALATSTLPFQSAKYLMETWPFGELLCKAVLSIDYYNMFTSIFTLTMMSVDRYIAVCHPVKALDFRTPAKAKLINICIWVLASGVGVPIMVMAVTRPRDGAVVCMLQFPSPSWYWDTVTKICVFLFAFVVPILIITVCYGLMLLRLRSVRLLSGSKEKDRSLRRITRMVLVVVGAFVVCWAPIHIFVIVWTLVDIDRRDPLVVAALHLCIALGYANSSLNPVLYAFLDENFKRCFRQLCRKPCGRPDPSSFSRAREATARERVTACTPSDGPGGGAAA

δ opioid receptors (MVD) = biological target: T5, δ opioid receptors (MVD) (Mus musculus, UniProt P32300); assay: Mouse isolated vas deferens (MVD) assay, opioid agonist
T5 construct: from tissue; host or cells: mouse (ICR) isolated vas deferens
T5 sequence (P32300 whole entry): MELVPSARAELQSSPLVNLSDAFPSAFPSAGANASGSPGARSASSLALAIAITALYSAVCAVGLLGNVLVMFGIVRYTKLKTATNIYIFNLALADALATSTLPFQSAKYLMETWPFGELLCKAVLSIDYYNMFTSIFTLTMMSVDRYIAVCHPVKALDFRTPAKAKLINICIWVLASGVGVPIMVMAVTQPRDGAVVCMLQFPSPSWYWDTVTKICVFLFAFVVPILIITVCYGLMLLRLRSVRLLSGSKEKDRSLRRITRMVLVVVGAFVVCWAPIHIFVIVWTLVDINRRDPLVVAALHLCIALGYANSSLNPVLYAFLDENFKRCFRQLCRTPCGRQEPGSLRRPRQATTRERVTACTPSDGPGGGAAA

rat NK1 (rNK1) receptor = biological target: T6, rat NK1 (rNK1) receptor (Rattus norvegicus, UniProt P14600); assay: Radioligand competition binding, [3H]substance P, rNK1/CHO membranes; settings: for IC50: membranes from transfected CHO cells
T6 construct: expressed in transfected cells; host or cells: CHO (rNK-1/CHO cell line from Dr. James Krause)
T6 sequence (P14600 whole entry): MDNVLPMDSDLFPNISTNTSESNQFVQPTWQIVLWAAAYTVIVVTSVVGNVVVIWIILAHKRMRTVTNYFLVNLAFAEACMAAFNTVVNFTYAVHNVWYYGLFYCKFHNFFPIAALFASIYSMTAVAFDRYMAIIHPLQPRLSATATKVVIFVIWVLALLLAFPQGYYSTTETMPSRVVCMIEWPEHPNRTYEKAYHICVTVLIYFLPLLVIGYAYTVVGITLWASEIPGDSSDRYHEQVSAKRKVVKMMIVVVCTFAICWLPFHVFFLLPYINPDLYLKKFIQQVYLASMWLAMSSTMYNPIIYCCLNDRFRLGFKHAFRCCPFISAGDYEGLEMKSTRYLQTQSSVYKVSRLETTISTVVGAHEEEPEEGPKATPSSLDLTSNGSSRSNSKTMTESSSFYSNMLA

male Sprague Dawley rats [10] = assay: Observation of toxicity throughout the in vivo studies; set-up: species or system rat
Description: as §2
These assays gave the inventors very encouraging results.

[11] = biological target: T4, human δ opioid receptors (hDOR); assay: [35S]GTP-γ-S binding assay, hDOR; assay type: biochemical
[12] = Octanol/saline distribution (logD7.4); assay type: physicochemical; settings: 0.05 N HEPES buffer in 0.1 N NaCl
[13] = Solubility in HEPES buffer; assay type: physicochemical; settings: pH 7.4; 0.05 N HEPES buffer in 0.1 N NaCl solution
Protocol: Solubility. HEPES buffer (0.05 M HEPES buffer in 0.1 M NaCl, pH 7.4, 500 μL) was added to 1 mg of compound. The sample was vortexed for 30 sec, sonicated for 5 min, shaken at r.t. for 2 h, and then allowed to be stayed overnight to equilibration. The sample was filtrated with an Acrodisc Syringe Filter (13 mm, 0.45 μm pore, PTFE membrane, Pall Life Sciences, East Hills, N.Y.).

μ opioid receptors (GPI) = assay: Guinea pig isolated ileum (GPI) assay, opioid agonist;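 further: inhibition of electrically evoked contractions (0.1 Hz, 0.4 msec, supramaximal voltage) in organ baths at 37 °C, contraction height 3 min after each cumulative dose versus the 1 min before dosing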
Protocol: Guinea Pig Isolated Ileum Assay. […] These tissues were tied to gold chains with suture silk and mounted between platinum wire electrodes in 20 mL organ baths at a tension of 1 g and bathed in oxygenated (95:5 O2:CO2) Kreb's bicarbonate buffer at 37° C. and stimulated electrically (0.1 Hz, 0.4 msec duration) at supramaximal voltage. Following an equilibration period, compounds were added cumulatively to the bath in volumes of 14-60 μL until maximum inhibition was reached. A baseline PL-017 was constructed to determine tissue integrity and allow calculation of antagonist activity before opioid analog testing began.
For opioid data analysis, percentage inhibition was calculated using the average tissue contraction height for 1 min preceding the addition of the agonist divided by the contraction height 3 min after exposure to the dose of agonist. […] IC50 and Emax estimates were determined by computerized nonlinear least-squares analysis (the pharmacological statistics package FlashCalc: Dr. Michael Ossipov, University of Arizona, Tucson, Ariz.). […] A50 values represent the mean of not less than 4 tissues. A50 and Emax estimates were determined by computerized nonlinear least-squares analysis (FlashCalc).

normal, uninjured rats [14] = assay: Rotarod motor skill test; settings: highest analgesic dose 30 μg
normal, uninjured rats [15] = settings: reported; cited from earlier work
[16] = chronic, i.th., SNL-operated animals

CC(=O)N[C@@H](Cc1c[nH]c2ccccc12)C(=O)OCc1cc(C(F)(F)F)cc(C(F)(F)F)c1 [L-732,138, Ac-Trp-3,5-O-Bzl(CF3)2, reference compound]
less affinity for rNK1 than hNK1 receptor [1]: 200 fold
Substance P antagonist, GPI, Ke ([2]; Table 16, in the presence of 1 μM naloxone): 250 ± 87 nM
Substance P antagonist, GPI, Ke ([2]; Table 22, in the presence of 1 μM naloxone): 250 ± 87 nM
Substance P antagonist, GPI, Ke ([2]; in the presence of 1 μM naloxone): 247 nM
Substance P antagonist, GPI, Ke ([2]; in the presence of 1 μM naloxone, 138): 247 ± 87 nM and 250 ± 87 nM

CSCC[C@H](NC(=O)[C@H](Cc1ccccc1)NC(=O)CNC(=O)[C@@H](C)NC(=O)[C@@H](N)Cc1ccc(O)cc1)C(=O)N1CCC[C@H]1C(=O)N[C@@H](CC(C)C)C(=O)N[C@@H](Cc1c[nH]c2ccccc12)C(=O)OCc1cc(C(F)(F)F)cc(C(F)(F)F)c1 [TY005, H-Tyr-D-Ala-Gly-Phe-Met-Pro-Leu-Trp-O-3,5-Bzl(CF3)2]
time after administration at which efficacy disappeared (male Sprague Dawley rats [3]): 45 min
anti-nociceptive effect (male Sprague Dawley rats [3]; infrared radiant heat, words): very potent; also recorded: distinct anti-nociceptive effect
Emax ([4]; read-out: Emax, rMOR, [35S]GTP-γ-S binding): 45%
Emax ([4]; read-out: GTP binding rMOR Emax): 45.6%
Emax ([4]; read-out: GTP binding rMOR Emax (%)): 45.6%
species difference between affinities at rNK1 and hNK1 [5]: 3.4 fold
anti-hyperalgesic recovery ([6]; 30 μg i.th., SNL rats): ~100%
thermal hyperalgesia after chronic administration [6, 16]: attenuates thermal hyperalgesia
anti-hyperalgesic efficacy ([6]; i.th., SNL rats, words): very potent; also recorded: Dose dependent anti-hyperalgesic efficacy
blood brain barrier penetration [7]: penetrate blood brain barrier
anti-allodynic effect against mechanical stimulation [8]: very potent anti-allodynic effect
mechanical allodynia after chronic administration [8, 16]: reverses mechanical allodynia
LogIC50, hDOR, [3H]DPDPE [9]: −8.22 ± 0.06
IC50 (δ opioid receptors (MVD)): 22.3 nM
Ki (rat NK1 (rNK1) receptor; Affinity rNK1 (Ki; nM), Table 29): 0.2 nM
IC50 (rat NK1 (rNK1) receptor; IC50, rNK1, Substance P radioligand): 6.4 nM
IC50 (rat NK1 (rNK1) receptor; LogIC50, rNK1, Substance P radioligand): 6.03 nM
sign of toxicity (male Sprague Dawley rats [10]): without any sign of toxicity; also recorded: no sign of toxicity
Emax ([11]; read-out: Emax, hDOR, [35S]GTP-γ-S binding): 51%
Emax ([11]; read-out: GTP binding hDOR Emax): 47.6%
Emax ([11]; read-out: GTP binding hDOR Emax (%)): 47.6%
logD7.4 [12]: >4.0
Kb ([2]; Substance P antagonist, GPI, Ke, in the presence of 1 μM naloxone): 24.7 ± 8.8 nM
activation at 1 µM ([2]; read-out: Substance P GPI agonist (A50), at 1 μM, contraction relative to initial muscle contraction with KCl): 0%
solubility [13]: < 0.2 µg/mL
IC50 (μ opioid receptors (GPI); Table 16, electrically stimulated isolated tissue, read-out: Opioid agonist GPI (μ), IC50): 360 ± 130 nM
IC50 (μ opioid receptors (GPI); Table 28, read-out: GPI/LMMP Opioid(m) Agonist (IC50; nM)): 359 nM
IC50 (μ opioid receptors (GPI); Table 30, read-out: GPI/LMMP Opioid(m) Agonist (IC50; nM)): 359 nM
IC50 (μ opioid receptors (GPI); Table 39, read-out: GPI/LMMP opioid(mu) agonist (IC50; nM)): 359 nM
IC50 (μ opioid receptors (GPI); electrically stimulated isolated tissue, read-out: GPI (μ), IC50): 359 ± 127 nM
sensorimotor impairment in rotarod test (normal, uninjured rats [14]): no sensorimotor impairment

CN1CC[C@]23c4c5ccc(O)c4O[C@H]2[C@@H](O)C=C[C@H]3[C@H]1C5 [morphine, reference compound]
rotarod performance (normal, uninjured rats [15]): impaired performance
anti-allodynic effect against mechanical stimulation [8]: negligible anti-allodynic efficacy
